Source: ChEMBL document CHEMBL4627340, “Design, synthesis, and biological activity of new endomorphin analogs with multi-site modifications” (Bioorg Med Chem, 2020)
pEC50, pKi: −log10 of the molar value. Calls of active or inactive are those of the source. The calls are words filed in the database; no cut-off is given here.

Legend:
Mu-type opioid receptor [1] = target: T1, Mu-type opioid receptor (Homo sapiens, UniProt P35372); assay: Agonist activity at mu opioid receptor (unknown origin) expressed in human HEK293 cells assessed as […] in cAMP accumulation using [3H]-cAMP as substrate measured after 30mins by liquid scintillation counting method relative to control; type: functional, cell-based
T1 sequence (P35372 whole entry): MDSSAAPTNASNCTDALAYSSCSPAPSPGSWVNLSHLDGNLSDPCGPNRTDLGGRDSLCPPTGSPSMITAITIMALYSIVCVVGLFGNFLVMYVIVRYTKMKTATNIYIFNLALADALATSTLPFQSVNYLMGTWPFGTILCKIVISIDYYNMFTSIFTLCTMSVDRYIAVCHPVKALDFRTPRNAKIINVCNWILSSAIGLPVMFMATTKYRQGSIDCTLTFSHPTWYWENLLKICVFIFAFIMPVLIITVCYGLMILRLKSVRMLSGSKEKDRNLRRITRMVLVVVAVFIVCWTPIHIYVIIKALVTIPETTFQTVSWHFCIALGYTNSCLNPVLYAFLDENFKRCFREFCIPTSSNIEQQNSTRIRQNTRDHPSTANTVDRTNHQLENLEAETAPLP

Mu-type opioid receptor [2] = target: Mu-type opioid receptor (Rattus norvegicus, UniProt P33535); assay: Displacement of [3H]-DAMGO from Wistar rat mu opioid receptor incubated for 1 hr by liquid scintillation counting method
Chain of Mu-type opioid receptor (Rattus norvegicus, UniProt P33535) (P33535 whole entry): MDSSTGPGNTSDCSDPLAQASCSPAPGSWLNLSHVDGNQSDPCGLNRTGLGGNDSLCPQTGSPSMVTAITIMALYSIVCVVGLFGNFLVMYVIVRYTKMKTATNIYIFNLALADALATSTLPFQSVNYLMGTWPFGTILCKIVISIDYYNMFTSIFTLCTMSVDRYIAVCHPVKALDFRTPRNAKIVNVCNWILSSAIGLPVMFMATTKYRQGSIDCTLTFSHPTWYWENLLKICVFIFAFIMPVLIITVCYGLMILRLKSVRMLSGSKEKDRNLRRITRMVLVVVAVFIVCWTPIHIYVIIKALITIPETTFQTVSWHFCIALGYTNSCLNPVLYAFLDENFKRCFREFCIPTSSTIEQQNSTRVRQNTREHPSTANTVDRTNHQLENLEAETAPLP

Mu-type opioid receptor [3] = target: T1, Mu-type opioid receptor; assay: Agonist activity at mu opioid receptor (unknown origin) expressed in human HEK293 cells assessed as […] in cAMP accumulation using [3H]-cAMP as substrate measured after 30mins by liquid scintillation counting method; type: functional, cell-based
[4] = target: Delta-type opioid receptor (Rattus norvegicus, UniProt P33533); assay: Displacement of [3H]-DPDPE from Wistar rat delta opioid receptor incubated for 3 hrs by liquid scintillation counting method
Chain of Delta-type opioid receptor (P33533 whole entry): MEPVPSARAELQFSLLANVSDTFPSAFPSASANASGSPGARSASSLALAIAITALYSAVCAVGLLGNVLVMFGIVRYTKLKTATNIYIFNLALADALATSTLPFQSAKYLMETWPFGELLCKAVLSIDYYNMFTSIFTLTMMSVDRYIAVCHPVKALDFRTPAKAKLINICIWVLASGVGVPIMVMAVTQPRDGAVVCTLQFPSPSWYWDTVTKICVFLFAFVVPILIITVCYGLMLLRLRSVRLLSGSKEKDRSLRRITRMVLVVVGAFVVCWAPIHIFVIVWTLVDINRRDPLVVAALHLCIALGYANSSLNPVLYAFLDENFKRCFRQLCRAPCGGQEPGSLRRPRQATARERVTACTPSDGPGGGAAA

Mus musculus [5] = assay: Antinociceptive activity in kunming mouse models of formalin-induced hyperalgesia assessed as reduction in time spent on paw biting inflammatory phase at 4 nmol, icv measured during phase 2 at 15 to 30 mins relative to control; type: functional; design: scale not given: the % may be the effect or the level left
Mus musculus [6] = assay: Antinociceptive activity in kunming mouse models of formalin-induced hyperalgesia assessed as reduction in time spent on paw biting inflammatory phase at 0.04 nmol, icv measured during phase 1 at 0 to 5 mins relative to control; type: functional; design: scale not given: the % may be the effect or the level left
Mus musculus [7] = assay: Antinociceptive activity in kunming mouse models of formalin-induced hyperalgesia assessed as reduction in pain response of paw licking inflammatory phase at 0.04 nmol, icv measured during phase 1 at 0 to 5 mins relative to control; type: functional; design: scale not given: the % may be the effect or the level left
Mus musculus [8] = assay: Antinociceptive activity in kunming mouse models of formalin-induced hyperalgesia assessed as reduction in pain response of paw licking inflammatory phase at 4 nmol, icv measured during phase 1 at 0 to 5 mins relative to control; type: functional; design: scale not given: the % may be the effect or the level left
Mus musculus [9] = assay: Antinociceptive activity in icv administered kunming mouse models of formalin-induced hyperalgesia assessed reduction in time spent on paw shaking during inflammatory phase 2 at 15 to 30 mins; type: functional; design: scale not given: the % may be the effect or the level left
Mus musculus [10] = assay: Antinociceptive activity in kunming mouse models of formalin-induced hyperalgesia assessed as reduction in pain response of paw licking inflammatory phase at 4 nmol, icv measured during phase 2 at 15 to 30 mins relative to control; type: functional; design: scale not given: the % may be the effect or the level left
Mus musculus [11] = assay: Antinociceptive activity in icv administered kunming mouse models of formalin-induced hyperalgesia assessed reduction in pain response of paw licking during inflammatory phase 2 at 15 to 30 mins; type: functional, organism-based
Mus musculus [12] = assay: Antinociceptive activity in kunming mouse models of acetic-acid-induced writhing assessed as inhibition of writhing numbers at 0.04 nmol, icv pretreated for 5 mins followed by acetic-acid treatment and measured for 20 mins relative to control; type: functional; design: scale not given: the % may be the effect or the level left
Mus musculus [13] = assay: Antinociceptive activity in kunming mouse models of formalin-induced hyperalgesia assessed as reduction in time spent on paw shaking inflammatory phase at 4 nmol, icv measured during phase 2 at 15 to 30 mins relative to control; type: functional; design: scale not given: the % may be the effect or the level left
Mus musculus [14] = assay: Antinociceptive activity in kunming mouse models of formalin-induced hyperalgesia assessed as reduction in time spent on paw biting inflammatory phase at 4 nmol, icv measured during phase 1 at 0 to 5 mins relative to control; type: functional; design: scale not given: the % may be the effect or the level left
Mus musculus [15] = assay: Antinociceptive activity in kunming mouse models of formalin-induced hyperalgesia assessed as reduction in time spent on paw shaking inflammatory phase at 0.04 nmol, icv measured during phase 1 at 0 to 5 mins relative to control; type: functional; design: scale not given: the % may be the effect or the level left
Mus musculus [16] = assay: Antinociceptive activity in icv administered kunming mouse models of formalin-induced hyperalgesia assessed reduction in time spent on paw biting during inflammatory phase 2 at 15 to 30 mins; type: functional; design: scale not given: the % may be the effect or the level left
[17] = Half life in Kunming mouse serum at 10^-2 mol/L by RP-HPLC analysis; type: ADME, cell-free
Mus musculus [18] = assay: Antinociceptive activity in kunming mouse models assessed as effective dose after icv administration measured from 5 to 60 mins by warm water tail-flick assay; type: functional
Mus musculus [19] = assay: Antinociceptive activity in kunming mouse models assessed as maximum possible effect at 4 nmol, icv measured from 5 to 60 mins by warm water tail-flick assay relative to control; type: functional
Mus musculus [20] = assay: Antinociceptive activity in kunming mouse models assessed as maximum possible effect at 0.4 nmol, icv measured from 5 to 60 mins by warm water tail-flick assay relative to control; type: functional
Mus musculus [21] = assay: Antinociceptive activity in kunming mouse models of formalin-induced hyperalgesia assessed as reduction in time spent on paw shaking inflammatory phase at 4 nmol, icv measured during phase 1 at 0 to 5 mins relative to control; type: functional; design: scale not given: the % may be the effect or the level left
[22] = Half life in Kunming mouse brain homogenate at 10^-2 mol/L by RP-HPLC analysis; type: ADME, tissue-based
Mus musculus [23] = assay: Antinociceptive activity in kunming mouse models assessed as maximum possible effect at 3 mg/kg, iv measured after 5 to 60 mins by warm water tail-flick assay; type: functional
Mus musculus [24] = assay: Antinociceptive activity in kunming mouse models assessed as maximum possible effect at 10 mg/kg, iv measured after 5 to 60 mins co-treated with naloxone by warm water tail-flick assay; type: functional, organism-based
Mus musculus [25] = assay: Antinociceptive activity in kunming mouse models of acetic-acid-induced writhing assessed as inhibition of writhing numbers at 3 mg/kg, iv pretreated for 5 mins followed by acetic-acid treatment and measured for 20 mins; type: functional, organism-based
[26] = Toxicity in kunming mouse assessed as reduction in fecal dry weight at 1 to 10 mg/kg, iv after 1 hr; type: organism-based; conditions: in vivo
[27] = Neurotoxicity in kunming mouse models assessed as effect in locomotor activity at 10 mg/kg,iv measured up to 60 mins by rotarod test; type: toxicity, organism-based; conditions: in vivo, 1 h
Mus musculus [28] = assay: Antinociceptive activity in kunming mouse models assessed as effective dose after iv administration by warm water tail-flick assay; type: functional
[29] = Toxicity in kunming mouse assessed as reduction in number of fecal pellet at 1 to 10 mg/kg, iv after 1 hr; type: organism-based; conditions: in vivo
Mus musculus [30] = assay: Antinociceptive activity in iv dosed kunming mouse models of formalin-induced hyperalgesia assessed as reduction in pain response of paw licking measured up to 60 mins; type: functional, organism-based

With `C=C(C(N)=O)[C@@H](NC(=O)[C@H](Cc1ccccc1)NC(=O)[C@@H](CN)NC(=O)[C@@H](N)Cc1ccc(O)cc1)c1ccco1` as the compound, how does the Emax (Mu-type opioid receptor [1]) read?
Its Emax is 62.3%.

What about the pKi (Mu-type opioid receptor [2]) of the same compound?
The pKi was 7.28.

What about the pEC50 (Mu-type opioid receptor [3]) of the same compound?
Its pEC50 is 5.82.

And the pKi [4]?
The pKi was < 5.00.

What does the source list for `C=C(C(N)=O)[C@@H](NC(=O)[C@H](Cc1c[nH]c2ccccc12)NC(=O)[C@@H](CCCNC(=N)N)NC(=O)[C@@H](N)Cc1ccc(O)cc1)c1ccco1`?
Activity (Mus musculus [5]): 100%; Activity (Mus musculus [6]): 100%; Activity (Mus musculus [7]): 100%; Activity (Mus musculus [8]): 100%; Activity (Mus musculus [9]): 100%; Activity (Mus musculus [10]): 100%; Activity (Mus musculus [11]): Dose-dependent effect; Activity (Mus musculus [12]): 100%; Activity (Mus musculus [13]): 100%; Emax (Mu-type opioid receptor [1]): 62.7%; pKi (Mu-type opioid receptor [2]): 8.31; Activity (Mus musculus [14]): 100%; Activity (Mus musculus [15]): 100%; Activity (Mus musculus [16]): 100%; pEC50 (Mu-type opioid receptor [3]): 6.66; half-life [17]: > 5 h; pKi [4]: 6.02; ED50 (Mus musculus [18]): 0.025 nmol; Activity (Mus musculus [19]): 100%; MPE (Mus musculus [20]): 94.7%; Activity (Mus musculus [21]): 100%; half-life [22]: > 5 h

Which Emax (Mu-type opioid receptor [1]) does the source give for `C=C(C(N)=O)[C@@H](NC(=O)[C@H](Cc1c[nH]c2ccccc12)NC(=O)[C@@H](CCCN)NC(=O)[C@@H](N)Cc1ccc(O)cc1)c1ccco1` here?
Its Emax is 65.6%.

And the pKi (Mu-type opioid receptor [2])?
Its pKi is 6.36.

And the pEC50 (Mu-type opioid receptor [3])?
The pEC50 was 7.05.

And the pKi [4]?
The pKi was 6.49.

For `CN1CC[C@]23c4c5ccc(O)c4O[C@H]2[C@@H](O)C=C[C@H]3[C@H]1C5` [MORPHINE], which MPE (Mus musculus [23]) is on record?
Its MPE is 53.6%.

For `C=C(C(N)=O)[C@@H](NC(=O)[C@H](Cc1c[nH]c2ccccc12)NC(=O)[C@@H](CCCNC(N)=O)NC(=O)[C@@H](N)Cc1ccc(O)cc1)c1ccco1`, which Activity (Mus musculus [5]) is on record?
The Activity was 100%.

What about the Activity (Mus musculus [6]) of the same compound?
Its Activity is 100%.

And the Activity (Mus musculus [7])?
Its Activity is 100%.

What about the Activity (Mus musculus [8]) of the same compound?
The Activity was 100%.

What about the Activity (Mus musculus [9]) of the same compound?
The Activity was 100%.

What about the Activity (Mus musculus [10]) of the same compound?
Its Activity is 100%.

What about the Activity (Mus musculus [24]) of the same compound?
Its Activity is “inactive”.

And the Activity (Mus musculus [11])?
The Activity was “Dose-dependent effect”.

And the Activity (Mus musculus [12])?
Its Activity is 100%.

What about the Activity (Mus musculus [13]) of the same compound?
The Activity was 100%.

And the Emax (Mu-type opioid receptor [1])?
The Emax was 78.9%.

What about the pKi (Mu-type opioid receptor [2]) of the same compound?
Its pKi is 8.24.

And the Activity (Mus musculus [25])?
Its Activity is “Active”.

What about the Activity [26] of the same compound?
The Activity was “Toxic”.

And the Activity [27]?
Its Activity is “Non-Toxic”.

And the Activity (Mus musculus [14])?
The Activity was 100%.

And the ED50 (Mus musculus [28])?
The ED50 was 2.59 nmol.

What about the Activity (Mus musculus [15]) of the same compound?
The Activity was 100%.

And the Activity (Mus musculus [16])?
The Activity was 100%.

What about the pEC50 (Mu-type opioid receptor [3]) of the same compound?
Its pEC50 is 6.79.

And the half-life [17]?
Its half-life is > 5 h.

And the pKi [4]?
The pKi was < 5.00.

What about the MPE (Mus musculus [23]) of the same compound?
The MPE was 51.2%.

What about the ED50 (Mus musculus [18]) of the same compound?
Its ED50 is 0.037 nmol.

And the Activity (Mus musculus [19])?
Its Activity is 100%.

What about the Activity [29] of the same compound?
The Activity was “Toxic”.

And the MPE (Mus musculus [20])?
Its MPE is 100%.

And the Activity (Mus musculus [21])?
The Activity was 100%.

And the half-life [22]?
The half-life was > 5 h.

What about the Activity (Mus musculus [30]) of the same compound?
The Activity was “Dose-dependent effect”.

With `C=C(C(N)=O)[C@@H](NC(=O)[C@H](Cc1c[nH]c2ccccc12)NC(=O)[C@@H](CN)NC(=O)[C@@H](N)Cc1ccc(O)cc1)c1ccco1` as the compound, how does the Emax (Mu-type opioid receptor [1]) read?
Its Emax is 81.5%.

What about the pKi (Mu-type opioid receptor [2]) of the same compound?
The pKi was 8.26.

And the pEC50 (Mu-type opioid receptor [3])?
The pEC50 was 6.72.

And the pKi [4]?
The pKi was < 5.00.

For `C=C(C(N)=O)[C@@H](NC(=O)[C@H](Cc1c[nH]c2ccccc12)NC(=O)[C@@H](CCN)NC(=O)[C@@H](N)Cc1ccc(O)cc1)c1ccco1`, which Emax (Mu-type opioid receptor [1]) is on record?
Its Emax is 75.5%.

What about the pKi (Mu-type opioid receptor [2]) of the same compound?
The pKi was 7.49.

What about the pEC50 (Mu-type opioid receptor [3]) of the same compound?
The pEC50 was 6.79.

And the pKi [4]?
The pKi was < 5.00.

Which Emax (Mu-type opioid receptor [1]) does the source give for `C=C(C(N)=O)[C@@H](NC(=O)[C@H](Cc1c[nH]c2ccccc12)NC(=O)[C@@H](CCCCNC(=N)N)NC(=O)[C@@H](N)Cc1ccc(O)cc1)c1ccco1` here?
Its Emax is 76.5%.

What about the pKi (Mu-type opioid receptor [2]) of the same compound?
The pKi was 6.39.

And the pEC50 (Mu-type opioid receptor [3])?
The pEC50 was 6.47.

And the pKi [4]?
The pKi was < 5.00.
